In one assay the target is T1, Adenosine receptor A1 (Homo sapiens, UniProt P30542).
T1 sequence (P30542 whole entry): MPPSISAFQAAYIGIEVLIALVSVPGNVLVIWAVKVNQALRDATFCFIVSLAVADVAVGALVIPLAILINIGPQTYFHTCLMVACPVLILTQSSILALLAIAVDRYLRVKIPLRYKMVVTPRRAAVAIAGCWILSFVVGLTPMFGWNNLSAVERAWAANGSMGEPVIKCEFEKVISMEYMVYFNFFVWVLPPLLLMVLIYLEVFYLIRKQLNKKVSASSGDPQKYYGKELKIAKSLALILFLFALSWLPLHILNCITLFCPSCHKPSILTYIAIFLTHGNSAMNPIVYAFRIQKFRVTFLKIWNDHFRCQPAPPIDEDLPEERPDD

Assay [1] deals with T2, Alpha-2A adrenergic receptor (Homo sapiens, UniProt P08913).
T2 sequence (P08913 whole entry): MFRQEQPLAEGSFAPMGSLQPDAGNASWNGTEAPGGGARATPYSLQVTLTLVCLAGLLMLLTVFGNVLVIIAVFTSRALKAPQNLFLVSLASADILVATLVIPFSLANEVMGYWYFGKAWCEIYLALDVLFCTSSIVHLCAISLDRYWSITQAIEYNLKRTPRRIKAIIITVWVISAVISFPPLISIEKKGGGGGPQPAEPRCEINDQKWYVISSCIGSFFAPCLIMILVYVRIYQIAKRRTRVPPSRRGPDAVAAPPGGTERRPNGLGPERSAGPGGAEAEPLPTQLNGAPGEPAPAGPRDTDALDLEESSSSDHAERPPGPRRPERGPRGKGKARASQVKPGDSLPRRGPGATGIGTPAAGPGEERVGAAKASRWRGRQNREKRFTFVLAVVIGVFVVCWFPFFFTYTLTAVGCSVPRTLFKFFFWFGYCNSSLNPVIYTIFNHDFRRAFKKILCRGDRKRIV
The format is functional, cell-based.

Assay [2] addresses T3, Alpha-2C adrenergic receptor (Homo sapiens, UniProt P18825).
T3 sequence (P18825 whole entry): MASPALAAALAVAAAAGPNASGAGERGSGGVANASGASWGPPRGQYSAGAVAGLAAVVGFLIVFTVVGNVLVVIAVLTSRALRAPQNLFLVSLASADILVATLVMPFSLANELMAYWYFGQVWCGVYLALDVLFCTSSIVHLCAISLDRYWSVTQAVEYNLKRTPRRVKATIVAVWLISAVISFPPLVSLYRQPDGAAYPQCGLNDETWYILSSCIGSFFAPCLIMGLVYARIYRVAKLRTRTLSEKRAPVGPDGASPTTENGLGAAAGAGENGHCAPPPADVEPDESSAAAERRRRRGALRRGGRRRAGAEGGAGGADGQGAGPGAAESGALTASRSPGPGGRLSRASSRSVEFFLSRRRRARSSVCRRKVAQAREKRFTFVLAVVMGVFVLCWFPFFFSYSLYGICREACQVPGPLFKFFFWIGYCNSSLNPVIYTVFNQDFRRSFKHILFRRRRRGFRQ
The format is functional.

Assay [3] deals with Beta-1 adrenergic receptor (Homo sapiens, UniProt P08588). Type of assay: functional.
Beta-1 adrenergic receptor, sequence (P08588 whole entry): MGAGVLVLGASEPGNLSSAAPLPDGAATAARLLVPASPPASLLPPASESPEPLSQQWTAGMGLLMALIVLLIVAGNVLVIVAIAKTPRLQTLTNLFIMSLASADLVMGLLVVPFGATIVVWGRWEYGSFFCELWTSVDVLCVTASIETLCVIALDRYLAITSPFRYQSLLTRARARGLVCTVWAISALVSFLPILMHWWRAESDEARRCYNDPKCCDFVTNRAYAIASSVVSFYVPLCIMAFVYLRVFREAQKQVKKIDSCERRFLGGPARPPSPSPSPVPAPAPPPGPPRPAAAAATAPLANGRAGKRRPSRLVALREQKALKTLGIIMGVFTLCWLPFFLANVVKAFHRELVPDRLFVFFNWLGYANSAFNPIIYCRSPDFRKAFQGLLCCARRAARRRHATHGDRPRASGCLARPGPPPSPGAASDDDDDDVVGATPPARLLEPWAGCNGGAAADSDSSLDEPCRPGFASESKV
Another assay concerns the target T4, B2 bradykinin receptor (Homo sapiens, UniProt P30411).
T4 sequence (P30411 whole entry): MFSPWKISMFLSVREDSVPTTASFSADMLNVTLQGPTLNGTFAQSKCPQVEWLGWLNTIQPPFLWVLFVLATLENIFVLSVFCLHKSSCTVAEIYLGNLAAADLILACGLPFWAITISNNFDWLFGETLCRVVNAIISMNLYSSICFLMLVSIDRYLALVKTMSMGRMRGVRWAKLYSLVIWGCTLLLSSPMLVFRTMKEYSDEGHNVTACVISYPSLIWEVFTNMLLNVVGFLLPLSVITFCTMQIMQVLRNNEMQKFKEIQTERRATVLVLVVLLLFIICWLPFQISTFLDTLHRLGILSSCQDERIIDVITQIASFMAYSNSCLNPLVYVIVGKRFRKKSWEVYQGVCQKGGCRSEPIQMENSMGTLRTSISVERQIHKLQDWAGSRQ

Assay [4] has as its target Gamma-aminobutyric acid receptor subunit alpha-1 (Rattus norvegicus, UniProt P62813). Type of assay: functional.
The next assay concerns the target Melanocortin receptor 3 (Homo sapiens, UniProt P41968).
The target of assay [5] is T5, Neuropeptide Y receptor type 1 (Homo sapiens, UniProt P25929).
T5 sequence (P25929 whole entry): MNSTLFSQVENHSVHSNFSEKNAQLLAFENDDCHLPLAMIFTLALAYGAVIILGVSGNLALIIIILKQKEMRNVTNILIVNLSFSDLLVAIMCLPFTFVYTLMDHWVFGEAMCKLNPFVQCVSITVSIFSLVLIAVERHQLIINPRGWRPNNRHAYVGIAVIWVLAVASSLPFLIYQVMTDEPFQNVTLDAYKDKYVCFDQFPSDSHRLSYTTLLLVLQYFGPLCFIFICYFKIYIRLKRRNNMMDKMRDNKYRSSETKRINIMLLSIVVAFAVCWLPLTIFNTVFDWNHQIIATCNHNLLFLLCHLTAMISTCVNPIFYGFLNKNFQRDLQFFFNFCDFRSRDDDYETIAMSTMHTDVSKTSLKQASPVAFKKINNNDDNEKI

For assay [6], the target named is Kappa-type opioid receptor (Homo sapiens, UniProt P41145).
Kappa-type opioid receptor, sequence (P41145 whole entry): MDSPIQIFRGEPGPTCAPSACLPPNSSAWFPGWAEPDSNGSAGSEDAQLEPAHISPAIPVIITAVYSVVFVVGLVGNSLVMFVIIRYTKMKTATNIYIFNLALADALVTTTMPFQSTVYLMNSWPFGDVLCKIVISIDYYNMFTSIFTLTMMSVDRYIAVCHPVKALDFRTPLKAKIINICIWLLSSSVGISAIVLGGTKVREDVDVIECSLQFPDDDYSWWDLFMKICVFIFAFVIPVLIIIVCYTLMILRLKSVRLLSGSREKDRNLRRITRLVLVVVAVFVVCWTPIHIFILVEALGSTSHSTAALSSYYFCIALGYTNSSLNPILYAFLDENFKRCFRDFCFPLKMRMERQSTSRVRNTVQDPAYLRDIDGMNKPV
The target in assay [7] is 3',5'-cyclic-AMP phosphodiesterase 4D (Homo sapiens, UniProt Q08499). The format is functional.
3',5'-cyclic-AMP phosphodiesterase 4D, sequence (Q08499 whole entry): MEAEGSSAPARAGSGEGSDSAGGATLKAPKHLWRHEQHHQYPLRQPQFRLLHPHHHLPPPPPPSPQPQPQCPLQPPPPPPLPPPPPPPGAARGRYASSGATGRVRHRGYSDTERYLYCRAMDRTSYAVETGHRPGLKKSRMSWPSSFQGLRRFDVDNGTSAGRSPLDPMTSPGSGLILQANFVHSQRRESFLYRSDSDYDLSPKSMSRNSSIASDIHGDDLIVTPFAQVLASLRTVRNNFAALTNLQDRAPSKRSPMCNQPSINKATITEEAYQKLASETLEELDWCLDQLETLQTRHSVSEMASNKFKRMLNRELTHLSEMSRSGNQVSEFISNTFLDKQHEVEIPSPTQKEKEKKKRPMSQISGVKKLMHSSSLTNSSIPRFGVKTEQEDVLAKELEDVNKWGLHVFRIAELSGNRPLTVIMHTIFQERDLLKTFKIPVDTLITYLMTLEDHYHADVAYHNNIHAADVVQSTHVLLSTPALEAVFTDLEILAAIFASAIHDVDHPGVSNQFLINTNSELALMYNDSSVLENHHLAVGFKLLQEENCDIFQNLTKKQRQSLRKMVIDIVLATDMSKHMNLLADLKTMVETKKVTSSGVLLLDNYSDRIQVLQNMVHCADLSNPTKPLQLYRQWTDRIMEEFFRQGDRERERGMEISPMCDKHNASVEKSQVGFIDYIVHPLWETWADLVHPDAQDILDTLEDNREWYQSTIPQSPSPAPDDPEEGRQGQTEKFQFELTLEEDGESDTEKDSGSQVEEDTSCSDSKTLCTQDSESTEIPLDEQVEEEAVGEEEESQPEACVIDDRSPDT
In assay [8] the target is cGMP-inhibited 3',5'-cyclic phosphodiesterase 3A (Homo sapiens, UniProt Q14432). Type of assay: functional.
cGMP-inhibited 3',5'-cyclic phosphodiesterase 3A, sequence (Q14432 whole entry): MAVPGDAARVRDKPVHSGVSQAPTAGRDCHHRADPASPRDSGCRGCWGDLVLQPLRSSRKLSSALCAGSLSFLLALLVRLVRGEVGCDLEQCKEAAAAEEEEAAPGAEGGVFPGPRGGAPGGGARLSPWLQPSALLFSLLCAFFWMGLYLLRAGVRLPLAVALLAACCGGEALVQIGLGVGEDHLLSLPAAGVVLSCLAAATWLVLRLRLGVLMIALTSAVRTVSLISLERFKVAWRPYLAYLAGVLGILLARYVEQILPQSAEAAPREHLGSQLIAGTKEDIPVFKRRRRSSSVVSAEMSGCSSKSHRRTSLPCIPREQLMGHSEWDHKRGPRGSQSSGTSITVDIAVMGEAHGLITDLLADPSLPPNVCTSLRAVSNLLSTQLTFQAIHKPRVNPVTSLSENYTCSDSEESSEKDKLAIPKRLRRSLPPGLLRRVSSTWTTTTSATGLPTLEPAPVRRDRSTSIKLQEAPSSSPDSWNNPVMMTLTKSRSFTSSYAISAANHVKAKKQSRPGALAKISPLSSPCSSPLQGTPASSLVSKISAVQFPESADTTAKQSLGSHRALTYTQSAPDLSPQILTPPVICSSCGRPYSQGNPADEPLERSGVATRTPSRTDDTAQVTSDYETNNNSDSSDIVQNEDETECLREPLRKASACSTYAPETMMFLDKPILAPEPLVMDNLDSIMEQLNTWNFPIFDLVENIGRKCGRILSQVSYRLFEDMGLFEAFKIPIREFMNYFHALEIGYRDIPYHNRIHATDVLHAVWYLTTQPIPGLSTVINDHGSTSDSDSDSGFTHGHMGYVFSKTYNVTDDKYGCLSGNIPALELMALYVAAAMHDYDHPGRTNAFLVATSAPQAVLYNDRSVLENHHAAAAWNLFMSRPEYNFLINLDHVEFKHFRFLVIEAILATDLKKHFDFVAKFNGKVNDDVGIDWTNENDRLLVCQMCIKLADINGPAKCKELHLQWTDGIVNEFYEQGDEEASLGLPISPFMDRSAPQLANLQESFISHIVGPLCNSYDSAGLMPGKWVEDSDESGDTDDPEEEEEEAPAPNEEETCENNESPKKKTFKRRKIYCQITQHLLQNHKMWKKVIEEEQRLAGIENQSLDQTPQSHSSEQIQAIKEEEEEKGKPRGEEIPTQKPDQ
The target in another assay is D(3) dopamine receptor (Homo sapiens, UniProt P35462).
D(3) dopamine receptor, sequence (P35462 whole entry): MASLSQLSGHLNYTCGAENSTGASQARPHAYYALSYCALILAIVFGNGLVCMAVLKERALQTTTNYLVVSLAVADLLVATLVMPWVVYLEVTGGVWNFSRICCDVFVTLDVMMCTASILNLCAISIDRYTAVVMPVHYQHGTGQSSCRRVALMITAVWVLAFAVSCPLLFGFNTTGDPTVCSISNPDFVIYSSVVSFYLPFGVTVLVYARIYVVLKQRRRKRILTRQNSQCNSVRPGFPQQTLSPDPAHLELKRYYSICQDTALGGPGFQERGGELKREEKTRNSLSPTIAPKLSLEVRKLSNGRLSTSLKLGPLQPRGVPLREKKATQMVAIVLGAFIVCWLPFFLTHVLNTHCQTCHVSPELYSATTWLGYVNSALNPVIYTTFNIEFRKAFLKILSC

This note sets out measurements from ChEMBL document CHEMBL5291721, “A preclinical secondary pharmacology resource illuminates target-adverse drug reaction associations of marketed drugs” (Nat Commun, 2023).

Structures are written as SMILES.
Further: assay procedure not described here.

Melanocortin receptor 3, sequence (P41968 whole entry): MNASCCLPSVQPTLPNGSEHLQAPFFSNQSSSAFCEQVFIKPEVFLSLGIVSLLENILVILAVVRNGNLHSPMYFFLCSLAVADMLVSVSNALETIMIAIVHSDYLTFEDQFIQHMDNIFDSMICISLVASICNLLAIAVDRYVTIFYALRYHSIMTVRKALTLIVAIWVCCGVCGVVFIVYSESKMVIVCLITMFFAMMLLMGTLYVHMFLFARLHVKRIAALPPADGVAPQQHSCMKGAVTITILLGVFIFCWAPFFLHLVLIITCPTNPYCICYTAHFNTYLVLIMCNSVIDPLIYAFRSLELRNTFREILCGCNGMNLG
Gamma-aminobutyric acid receptor subunit alpha-1, sequence (P62813 whole entry): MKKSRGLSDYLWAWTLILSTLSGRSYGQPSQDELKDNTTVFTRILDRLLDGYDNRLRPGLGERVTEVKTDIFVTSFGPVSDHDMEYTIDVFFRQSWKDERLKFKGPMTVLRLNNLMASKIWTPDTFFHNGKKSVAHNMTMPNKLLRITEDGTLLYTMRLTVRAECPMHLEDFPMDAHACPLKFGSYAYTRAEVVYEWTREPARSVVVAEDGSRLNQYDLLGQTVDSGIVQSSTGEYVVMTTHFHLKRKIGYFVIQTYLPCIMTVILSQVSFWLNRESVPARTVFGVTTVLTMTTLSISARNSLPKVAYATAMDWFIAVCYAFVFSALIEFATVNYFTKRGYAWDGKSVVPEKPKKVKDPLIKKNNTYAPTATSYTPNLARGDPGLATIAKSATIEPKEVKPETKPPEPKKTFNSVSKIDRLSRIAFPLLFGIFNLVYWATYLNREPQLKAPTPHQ

By AC50 is commonly meant the concentration at which the activity in the assay is half-maximal. The low end stands for greater potency, the high end for weaker potency. Regarding `CC(=O)OCC[N+](C)(C)C` [ACETYLCHOLINE], the AC50 at Adenosine receptor A1 was more than 30 µM; in [1] it was more than 10 µM; in [2], more than 10 µM; in assay [3], more than 30 µM; at B2 bradykinin receptor, more than 30 µM; in assay [4], more than 10 µM. In addition, the AC50 at Melanocortin receptor 3 is more than 30 µM; in [5] it was more than 30 µM; in assay [6], more than 10 µM; in assay [7], more than 30 µM; in assay [8], more than 30 µM; at D(3) dopamine receptor, more than 30 µM.

In the case of `NS(=O)(=O)c1cc(C2(O)NC(=O)c3ccccc32)ccc1Cl` (configuration not stated) [CHLORTHALIDONE], the AC50 (on Adenosine receptor A1; in [1]; in assay [2]; in assay [3]; on B2 bradykinin receptor; in assay [4]) was more than 10 µM in each case. For the same compound, the AC50 on Melanocortin receptor 3 is more than 10 µM; in assay [5] it was more than 10 µM; in assay [6] it was more than 10 µM; in assay [7], more than 30 µM; in assay [8], more than 30 µM; on D(3) dopamine receptor, more than 30 µM.

In the case of `C[C@@H]1CCC[C@H](C)N1NC(=O)c1ccc(Cl)c(S(N)(=O)=O)c1` [CLOPAMIDE], the AC50 (on Adenosine receptor A1; in assay [1]; in assay [2]; in assay [3]; on B2 bradykinin receptor; in [4]) was more than 30 µM each time. Also, the AC50 (at Melanocortin receptor 3; in assay [5]; in assay [6]; in assay [7]; in assay [8]; on D(3) dopamine receptor) was more than 30 µM in each case.

`O=c1oc2ccccc2c(O)c1Cc1c(O)c2ccccc2oc1=O` [DICUMAROL]: the AC50 (at Adenosine receptor A1; in assay [1]; in assay [2]; in assay [3]; at B2 bradykinin receptor; in [4]) was more than 10 µM each time. In addition, the AC50 is more than 10 µM at Melanocortin receptor 3; more than 10 µM in assay [5]; more than 10 µM in [6]; 6.3 µM in [7]; more than 10 µM in [8]; more than 30 µM on D(3) dopamine receptor.

Regarding `CCn1cc(C(=O)O)c(=O)c2cc(F)c(N3CCNCC3)nc21` [ENOXACIN], the AC50 at Adenosine receptor A1 is more than 30 µM; in [1] it was more than 10 µM; in [2], more than 10 µM; in assay [3], more than 10 µM; at B2 bradykinin receptor, more than 30 µM; in assay [4] it was more than 10 µM. The AC50 on Melanocortin receptor 3 is more than 30 µM; in assay [5] it was more than 30 µM; in assay [6] it was more than 10 µM; in assay [7], more than 10 µM; in [8], more than 30 µM; at D(3) dopamine receptor, more than 10 µM.

Consider `O=C(O)CSCC(=O)NC1CCSC1=O` (configuration not stated) [ERDOSTEINE], for which the AC50 (at Adenosine receptor A1; in assay [1]; in assay [2]; in assay [3]; on B2 bradykinin receptor; in [4]) was more than 30 µM in each case. Besides, the AC50 (on Melanocortin receptor 3; in assay [5]; in assay [6]; in [7]; in [8]; at D(3) dopamine receptor) was more than 30 µM in each case.

As to `COc1cccc(N(C)C(=S)Oc2ccc3c(c2)CCCC3)n1` [LIRANAFTATE], the AC50 (on Adenosine receptor A1; in assay [1]; in assay [2]; in assay [3]; on B2 bradykinin receptor; in [4]) was more than 30 µM in each case. Moreover, the AC50 at Melanocortin receptor 3 is more than 30 µM; in [5], more than 30 µM; in assay [6], 1.5 µM; in assay [7], more than 30 µM; in [8], more than 30 µM; on D(3) dopamine receptor it was more than 30 µM.

Turning to `C#C[C@]1(O)CC[C@H]2[C@@H]3CCc4cc(OC)ccc4[C@H]3CC[C@@]21C` [MESTRANOL], the AC50 on Adenosine receptor A1 is more than 30 µM; in assay [1], more than 10 µM; in assay [2], more than 30 µM; in assay [3], more than 10 µM; at B2 bradykinin receptor, more than 10 µM; in [4], more than 10 µM. The AC50 is more than 10 µM at Melanocortin receptor 3; more than 10 µM in assay [5]; more than 10 µM in assay [6]; more than 30 µM in assay [7]; more than 30 µM in [8]; more than 30 µM at D(3) dopamine receptor.

Turning to `N=C(N)c1ccc2cc(OC(=O)c3ccc(N=C(N)N)cc3)ccc2c1` [NAFAMOSTAT], the AC50 is more than 30 µM on Adenosine receptor A1; more than 30 µM in [1]; 3.2 µM in assay [2]; more than 30 µM in assay [3]; more than 30 µM at B2 bradykinin receptor; more than 30 µM in [4]. The AC50 is more than 30 µM at Melanocortin receptor 3; 10 µM in [5]; 17 µM in assay [6]; more than 30 µM in [7]; more than 30 µM in assay [8]; 4.6 µM on D(3) dopamine receptor.

For `CNC(=O)Oc1ccc2c(c1)[C@]1(C)CCN(C)[C@@H]1N2C` [PHYSOSTIGMINE], the AC50 (on Adenosine receptor A1; in assay [1]; in assay [2]; in assay [3]; at B2 bradykinin receptor; in assay [4]) was more than 30 µM in each case. In addition, the half-maximal activity concentration (AC50) on Melanocortin receptor 3 is more than 30 µM; in [5], more than 30 µM; in [6] it was 2.2 µM; in assay [7] it was more than 30 µM; in assay [8] it was more than 30 µM; at D(3) dopamine receptor it was more than 30 µM.

For `O=C(O)c1cc(O)c2c3nc4ccccc4oc-3cc(=O)c2n1` [PIRENOXINE], the AC50 was more than 30 µM on Adenosine receptor A1; more than 30 µM in assay [1]; 2.7 µM in assay [2]; more than 30 µM in assay [3]; more than 30 µM at B2 bradykinin receptor; more than 30 µM in assay [4]. In addition, the AC50 on Melanocortin receptor 3 is more than 30 µM; in assay [5], more than 30 µM; in assay [6] it was more than 30 µM; in assay [7], more than 30 µM; in assay [8], more than 30 µM; on D(3) dopamine receptor, 1.6 µM.
